What was measured:
IL-1β = IL-1β inhibition assay (ELISA/HTRF of culture supernatants); type: cell-based; conditions: Homo sapiens, PMA-differentiated THP-1 cells, tested 10 μM to 0.003 μM
Protocol: Human monocyte-like THP-1 cells were grown in RPMI media supplemented with 10% FBS (growth media) at 37° C., 5% CO2. Cell cultures were passaged every three days and maintained at a density of 5×10^5 to 1×10^6 cells per mL.
Compounds were prepared as 10 mM stock solutions in 100% DMSO. […] Each 200× dilution was then diluted 20-fold in growth media (step down dilution) to yield a 10× final assay concentration range. All compounds were tested over a final assay concentration range of 10 μM to 0.003 μM.
The level of IL-10 in supernatants from PMA-differentiated THP-1 cells was determined by ELISA using either the R&D Systems Human IL-1 beta/IL-1F2 Quantikine ELISA or the cisbio HTRF human IL 1 beta kit. Manufacturer's protocols were followed without deviation.
Background values were subtracted and resulting values were converted to percentage of vehicle-treated controls. Data was analyzed via GraphPad Prism 7.0 using a non-linear regression (variable slope (four-parameter)) equation.
Table 2 provides IL-10 ELISA EC50 values for example compounds. A indicates EC50>10 μM; B indicates EC50 between 1 and 10 μM (inclusive); C indicates EC50<1 μM.

[1] = MTT cell viability assay, THP-1 cells; type: cell-based; conditions: human, unstimulated THP-1 cells, read-out: THP-1 Cytotoxicity CC50
Protocol: In order to assess the cytotoxicity of the compounds, an MTT cell viability assay was performed in either unstimulated THP-1 or HepG2 cells as follows. 5×10^4 THP-1 or 5×10^3 HepG2 cells were seeded into each well of a 96-well plate in 90 μL of media. Compounds were added to cells as described for the IL-10 assay and returned to the incubator for an additional 72 hours. Next, 25 μL of MTT solution (5 mg/mL in sterile PBS) was added to each well. Plates were incubated for 3 hours at 37° C., 5% CO2. Next, for THP-1 cells, 100 μl of MTT solubilization solution (40% Dimethylformamide, 2% glacial acetic acid, 16% sodium dodecyl sulfate) was then added to each well and plates were incubated at room temperature in the dark overnight. For HepG2 cells, media was aspirated, 50 μL of DMSO was added and plates were mixed briefly with an orbital plate shaker. Absorbance at 570 nm was measured using a Perkin-Elmer EnVision plate reader.
Absorbance values were converted to percentage of vehicle-treated controls. Data was then analyzed using a non-linear regression (variable slope (four-parameter)) equation in GraphPad Prism 7.0.
Table 2 provides THP-1 cytotoxicity assay CC50 values for example compounds. A indicates CC50>10 μM; B indicates CC50 between 1 and 10 μM (inclusive); C indicates CC50<1 μM. NT, not tested.

Row | Structure (SMILES) | EC50 (IL-1β) [µM] | CC50 at 72 h [1] [µM]
1 | CC(C)c1cc(B(O)O)cc(C(C)C)c1NC(=O)NS(=O)(=O)c1ccn(C(C)C)n1 [Example 31, (3,5-diisopropyl-4-(3-((1-isopropyl-1H-pyrazol-3-yl)sulfonyl)ureido)phenyl)boronic acid] | > 10 | > 10
2 | CC(C)c1cccc(C(C)C)c1NC(=O)NS(=O)(=O)c1ccc(B(O)O)cc1 [Example 3, (4-(N-((2,6-diisopropylphenyl)carbamoyl)sulfamoyl)phenyl)boronic acid] | 1 to 10 | > 10
3 | CC(C)c1cc(B2OC(C)(C)C(C)(C)O2)ccc1NC(=O)NS(=O)(=O)c1cnn(C(C)C)c1 [Example 18, 1-isopropyl-N-((2-isopropyl-4-(4,4,5,5-tetramethyl-1,3,2-dioxaborolan-2-yl)phenyl)carbamoyl)-1H-pyrazole-4-sulfonamide] | > 10 | > 10
4 | COc1cc(-c2ccc3c(c2NC(=O)NS(=O)(=O)c2ccc4c(c2)COB4O)CCC3)ccn1 [Example 51, 1-hydroxy-N-((5-(2-methoxypyridin-4-yl)-2,3-dihydro-1H-inden-4-yl)carbamoyl)-1,3-dihydrobenzo[c][1,2]oxaborole-5-sulfonamide] | 1 to 10 | > 10
5 | CC1(C)[C@@H]2C[C@H]3OB(CCCc4cc(S(=O)(=O)NC(=O)Nc5c6c(cc7c5CCC7)CCC6)ccc4O)O[C@@]3(C)[C@H]1C2 [Example 49, N-((1,2,3,5,6,7-hexahydro-s-indacen-4-yl)carbamoyl)-4-hydroxy-3-(3-((3aS,4S,6S,7aR)-3a,5,5-trimethylhexahydro-4,6-methanobenzo[d][1,3,2]dioxaborol-2-yl)propyl)benzenesulfonamide] | 1 to 10 | > 10
6 | Cc1c(B(O)O)cccc1S(=O)(=O)NC(=O)Nc1c2c(cc3c1CCC3)CCC2 [Example 15, (3-(N-((1,2,3,5,6,7-hexahydro-s-indacen-4-yl)carbamoyl)sulfamoyl)-2-methylphenyl)boronic acid] | 1 to 10 | > 10
7 | COc1ccc(S(=O)(=O)NC(=O)Nc2c3c(cc4c2CCC4)CCC3)cc1CCB1OC(C)(C)C(C)(C)O1 [Example 32, N-((1,2,3,5,6,7-hexahydro-s-indacen-4-yl)carbamoyl)-4-methoxy-3-(2-(4,4,5,5-tetramethyl-1,3,2-dioxaborolan-2-yl)ethyl)benzenesulfonamide] | 1 to 10 | > 10
8 | O=C(Nc1c2c(cc3c1CCC3)CCC2)NS(=O)(=O)c1ccccc1B(O)O [Example 10, (2-(N-((1,2,3,5,6,7-hexahydro-s-indacen-4-yl)carbamoyl)sulfamoyl)phenyl)boronic acid] | > 10 | > 10
9 | CC(C)c1cccc(C(C)C)c1NC(=O)NS(=O)(=O)c1ccc(B2O[C@@H]3C[C@@H]4C[C@@H](C4(C)C)[C@]3(C)O2)cc1 [Example 4, N-((2,6-diisopropylphenyl)carbamoyl)-4-((3aS,4S,6S,7aR)-3a,5,5-trimethylhexahydro-4,6-methanobenzo[d][1,3,2]dioxaborol-2-yl)benzenesulfonamide] | > 10 | > 10
10 | O=C(Nc1c2c(cc3c1CCC3)CCC2)NS(=O)(=O)c1ccc2c(c1)CCB(O)O2 [Example 33, N-((1,2,3,5,6,7-hexahydro-s-indacen-4-yl)carbamoyl)-2-hydroxy-3,4-dihydro-2H-benzo[e][1,2]oxaborinine-6-sulfonamide] | 1 to 10 | > 10
11 | CC1(C)OB(CCCc2cccc(S(=O)(=O)NC(=O)Nc3c4c(cc5c3CCC5)CCC4)c2)OC1(C)C [Example 46, N-((1,2,3,5,6,7-hexahydro-s-indacen-4-yl)carbamoyl)-3-(3-(4,4,5,5-tetramethyl-1,3,2-dioxaborolan-2-yl)propyl)benzenesulfonamide] | 1 to 10 | > 10
12 | COc1cc(S(=O)(=O)NC(=O)Nc2c3c(cc4c2CCC4)CCC3)ccc1CB1O[C@@H]2C[C@@H]3C[C@@H](C3(C)C)[C@]2(C)O1 [Example 42, N-((1,2,3,5,6,7-hexahydro-s-indacen-4-yl)carbamoyl)-3-methoxy-4-(((3aS,4S,6S,7aR)-3a,5,5-trimethylhexahydro-4,6-methanobenzo[d][1,3,2]dioxaborol-2-yl)methyl)benzenesulfonamide] | < 1 | > 10
13 | CC1(C)[C@@H]2C[C@H]3OB(CCCc4ccc(S(=O)(=O)NC(=O)Nc5c6c(cc7c5CCC7)CCC6)cc4O)O[C@@]3(C)[C@H]1C2 [Example 48, N-((1,2,3,5,6,7-hexahydro-s-indacen-4-yl)carbamoyl)-3-hydroxy-4-(3-((3aS,4S,6S,7aR)-3a,5,5-trimethylhexahydro-4,6-methanobenzo[d][1,3,2]dioxaborol-2-yl)propyl)benzenesulfonamide] | 1 to 10 | > 10
14 | Cc1ccc(S(=O)(=O)NC(=O)Nc2c(C(C)C)cccc2C(C)C)cc1B1OC(C)(C)C(C)(C)O1 [Example 6, N-((2,6-diisopropylphenyl)carbamoyl)-4-methyl-3-(4,4,5,5-tetramethyl-1,3,2-dioxaborolan-2-yl)benzenesulfonamide] | 1 to 10 | > 10
15 | Cc1ccc(S(=O)(=O)NC(=O)Nc2c(C(C)C)cccc2C(C)C)cc1B(O)O [Example 7, (5-(N-((2,6-diisopropylphenyl)carbamoyl)sulfamoyl)-2-methylphenyl)boronic acid] | 1 to 10 | > 10
16 | O=C(Nc1c2c(cc3c1CCC3)CCC2)NS(=O)(=O)c1ccc(CCCB(O)O)c(O)c1 [Example 40, (3-(4-(N-((1,2,3,5,6,7-hexahydro-s-indacen-4-yl)carbamoyl)sulfamoyl)-2-hydroxyphenyl)propyl)boronic acid] | 1 to 10 | > 10
17 | CC(C)n1cc(S(=O)(=O)NC(=O)Nc2cc(B(O)O)ccc2C2CC2)cn1 [Example 21, (4-cyclopropyl-3-(3-((1-isopropyl-1H-pyrazol-4-yl)sulfonyl)ureido)phenyl)boronic acid] | > 10 | 1 to 10
18 | COc1ccc(B2OC(C)(C)C(C)(C)O2)cc1S(=O)(=O)NC(=O)Nc1c(C(C)C)cccc1C(C)C [Example 9, N-((2,6-diisopropylphenyl)carbamoyl)-2-methoxy-5-(4,4,5,5-tetramethyl-1,3,2-dioxaborolan-2-yl)benzenesulfonamide] | > 10 | > 10
19 | O=C(Nc1c2c(cc3c1CCC3)CCC2)NS(=O)(=O)c1ccc2c(c1)OB(O)CC2 [Example 41, N-((1,2,3,5,6,7-hexahydro-s-indacen-4-yl)carbamoyl)-2-hydroxy-3,4-dihydro-2H-benzo[e][1,2]oxaborinine-7-sulfonamide] | 1 to 10 | > 10
20 | O=C(Nc1c2c(cc3c1CCC3)CCC2)NS(=O)(=O)c1ccc2c(c1)B(O)OC2=O [Example 36, N-((1,2,3,5,6,7-hexahydro-s-indacen-4-yl)carbamoyl)-1-hydroxy-3-oxo-1,3-dihydrobenzo[c][1,2]oxaborole-6-sulfonamide] | > 10 | > 10
21 | COc1ccc(S(=O)(=O)NC(=O)Nc2c3c(cc4c2CCC4)CCC3)cc1CCCB1O[C@@H]2C[C@@H]3C[C@@H](C3(C)C)[C@]2(C)O1 [Example 50, N-((1,2,3,5,6,7-hexahydro-s-indacen-4-yl)carbamoyl)-4-methoxy-3-(3-((3aS,4S,6S,7aR)-3a,5,5-trimethylhexahydro-4,6-methanobenzo[d][1,3,2]dioxaborol-2-yl)propyl)benzenesulfonamide] | 1 to 10 | > 10
22 | CC(C)c1cc(B(O)O)cc(C(C)C)c1NC(=O)NS(=O)(=O)c1cnn(C(C)C)c1 [Example 24, (3,5-diisopropyl-4-(3-((1-isopropyl-1H-pyrazol-4-yl)sulfonyl)ureido)phenyl)boronic acid] | 1 to 10 | > 10
23 | C[N+]12CC(=O)O[B-]1(c1cccc(S(=O)(=O)NC(=O)Nc3c4c(cc5c3CCC5)CCC4)c1)OC(=O)C2 (stereo not drawn) [Example 26, N-((1,2,3,5,6,7-hexahydro-s-indacen-4-yl)carbamoyl)-3-(4-methyl-2,6-dioxotetrahydro-2H-414,814-[1,3,2]oxazaborolo[2,3-b][1,3,2]oxazaborol-8-yl)benzenesulfonamide] | < 1 | > 10
24 | CC(C)(O)c1coc(S(=O)(=O)NC(=O)Nc2c3c(cc4c2CCC4)CCC3)c1 [MCC-950, reference compound] | < 1 | > 10

— patent publication US20240018166A1, “SULFONYL UREA NLRP3 INFLAMMASOME INHIBITORS” (Venatorx Pharmaceuticals, Inc., priority 2020, published 2024)
